Data set [1] in a line: Pharmacokinetics of 3H-berberine in rabbits, intravenous and intravenous drip. As to the method:
0.1 ml of blood was removed at various times and radiation emissions were measured.

Data set [2] in a line: Excretion of berberine in rats (urine, fecal matter, gall bladder secretions). It counts as in vivo, rat. Particulars: rats, oral 3H-berberine, forty-eight hours. The method, then: In a final series of animal model studies, rats were orally administered 3H-berberine. Forty-eight hours after administration, excretions were tested for the presence of berberine. 2.7% of the oral dose was measured in the urine and 86% of the oral dose was measured in the fecal matter.
Rats received intravenous berberine (9.25 MBq/kg). Six days accumulation of rat urine and fecal secretions were measured for the presence of berberine. 73% of the intravenous dose of the berberine was found in the accumulated urine in both metabolized and unmetabolized forms. 10.9% of the intravenous dose was found in the fecal matter.
Three rats were given berberine (9.25 MBq/kg) intravenously. After 24 hours, gall bladder secretions were collected and evaluated for the presence of berberine. There was 10.1±0.9% (x±SD, n=3) of berberine in the gall bladder secretions.

A short description of data set [3]: Tissue distribution of 3H-berberine in mice. It counts as in vivo, mouse. Particulars: tail vein 135 LBq/10 g, 5 minutes to 2 hours. The method, then:
Tissue radiation emission was measured 5 minutes to 2 hours after administration with the distribution of the berberine concentrations from highest to lowest being: lung>liver>kidney>spleen>heart>intestine>stomach>brain.

The conditions of data set [4]: Distill Water; amount of solute 10 mg.
In data set [5] the test system is patients with type 2 diabetes. It counts as in vivo, human. Particulars: patients with type 2 diabetes, Mean ± SE. An excerpt:
Ninety-seven hyperglycemic patients (54 males and 43 females) with fasting blood glucose>7 mmol/L and post-prandial blood glucose>11.1 mmol/L were enrolled in a study at the Nanjing First Hospital in Nanjing, China. The patients were asked to end any current treatments for hyperglycemia at least 2 weeks prior to commencement of the study.
Fifty of the patients (male/female, 27/23; age 57±8y) were randomly assigned to be given 0.5 gram twice a day (1g/day total) of berberine (Nanjing Second Pharmaceutics, Inc., Nanjing, China), orally for 2 months. Out of these 50 patients, 25 had hyperlipidemia, 9 had hypertension and 2 had cardiovascular disease. Twenty-six patients (male/female, 15/11; age 56±11 y) were given 1.5 grams of metformin (Double-Crane Pharmaceutical, Inc., Beijing, China) per day, orally for two months. Of these twenty-six patients, 11 had hyperlipidemia, and four had hypertension. The remaining twenty-one patients (male/female, 11/10, age 49±10 y) were given 4 mg per day of rosiglitazone (Glaxowelcome, UK), orally for two months. Of these 21 patients, ten had hyperlipidemia and four had hypertension. Metformin and rosiglitazone served as reference controls as they are standard treatments for type 2 diabetes.
Blood samples were taken prior to the commencement of therapy and after completion of the therapy.

The test system of a further data set is hyperlipidemia patients. Particulars: three months.
A further data set has as its system rat model subjects. Kind of data set: Combinatorial anti-hyperlipidemia efficacy of berberine and lovastatin in rats (Table 9). It counts as in vivo.
The test system of a further data set is InsR mRNA. Put plainly: Kinase inhibitors on berberine-induced InsR gene transcription in HepG2 cells (RT-PCR). It counts as cell-based, human. Particulars: HepG2, inhibitor 1 hour before 7.5 μg berberine 8 hours; calphostin C 0.2 μM. As to the method:
(§1) To explore the pathway responsible for the berberine-induced InsR gene transcription, different kinase inhibitors were used, including the MEK1-ERK inhibitor U0126, the p38 kinase inhibitor SB203580, the c-Jun N-terminal kinase inhibitor curcumin, the PI-3 kinase inhibitor wortmannin, and the PKC inhibitor calphostin C.
(§2) HepG2 cells were pretreated with each of the inhibitors 1 hour prior to treatment with 7.5 μg of berberine for 8 hours. Total RNA was then isolated and the relative amount of InsR and LDLR mRNA was measured by quantitative RT-PCR as described in Example XVII. It was determined that the activity of berberine on InsR gene transcription was most sensitive to the PKC inhibitor calphostin C.

For another data set, the system named is LDLR mRNA. Kind of data set: Kinase inhibitors on berberine-induced LDLR mRNA in HepG2 cells (RT-PCR). Particulars: HepG2, inhibitor 1 hour before 7.5 μg berberine 8 hours; calphostin C 0.2 μM. It counts as cell-based, human. As to the method:
as §1, §2

The test system of the next data set is InsR gene promoter. Kind of data set: InsR promoter activity, pGL3-1.5kIRP transfected HepG2 cells. It counts as cell-based, human. Particulars: pGL3-1.5kIRP transfected HepG2; calphostin C 0.2 μM, berberine 5 μg/ml. The method, then: The InsR promoter luciferase gene fusion plasmid (pGL3-1.5kIRP) was kindly provided by Dr. Araki E of the Graduate School of Medical Sciences, Kumamoto University, Honjo, Kumamoto, Japan.
After overnight incubation, the cells were treated with DMSO as the solvent control or with 0, 1, 2.5, 5, 7.5 and 10 μg/ml berberine for 8 h. Cell lysates were prepared and luciferase activities were measured using the Luciferase Reporter Gene Assay (Roche Applied Science). The experiment was repeated 4 times.

In data set [6] the test system is high fat high cholesterol (HFHC) diet rats. Kind of data set: Combination treatment with berberine and simvastatin in HFHC diet rats (Table 8). Particulars: oral, after 25 days, daily dose berberine 100 mg/kg, simvastatin 25 mg/kg, combination 100 + 25, average ± standard error. It counts as in vivo, rat. As to the method:
Rats were fed a high fat high cholesterol (HFHC) diet for 10 days, and then divided into groups of seven. The rats were then administered berberine or simvastatin, or a combination of berberine and simvastatin orally for 25 days. After 25 days, serum cholesterol, triglyceride and LDL-c levels were measured. […] The combination of simvastatin, and berberine lowered the cholesterol, triglyceride and LDL-c levels further than either alone.

Another data set concerns LDLR promoter. Kind of data set: LDLR promoter activity, pLDLR234Luc reporter in HepG2 cells. It counts as cell-based, human. Particulars: pLDLR234Luc HepG2, LPDS or LPDS and cholesterol medium, 8 hour treatment. The source says: HepG2 cells were transfected with the reporter construct pLDLR234Luc, which contains the SRE- I motif and the sterol-independent regulatory element that mediates the cytokine oncostatin M-induced transcription of the LDLR gene.

Setting [7] is: After treatment (2 months), oral: berberine 1 g/day, metformin 1.5 g/day, rosiglitazone 4 mg/day.
The mark [8] stands for this setting: 0.5 g twice a day, all treated patients (n=63).
[9] abbreviates: only participants neither on drugs nor special diets.
[10] abbreviates: high fat diet rats treated for 15 days, berberine 80 mg/kg/day, lovastatin 10 mg/kg/day.
[11] abbreviates: high fat diet rats, Day 0 (untreated rats, baseline).

Structures can show the parent of a compound that is named as a salt. Where two headings read alike, the source gives them in different places.

Procedure for hyperlipidemia patients: After three months, fasting serum concentrations of cholesterol, triglycerides, HDL and LDL were measured using standard blood lipid tests.

For orientation: Vd means the apparent volume that relates the amount in the body to the concentration in plasma or blood. In the case of 3H-berberine, the Vd stood at 20 ± 3 L/kg in data set [1] (5 rabbits, intravenously 25 MBq/kg) and 22.1 ± 1.7 L/kg in data set [1] (four rabbits, intravenous drip 46.25 Mbq/kg). In data set [2], the “oral dose measured in the fecal matter” value is on record as 86%. For the same molecule, the “oral dose measured in the urine” value in data set [2] was 2.7%. In addition, in [3], the “distribution of concentrations in tissues, highest to lowest” value is listed as “lung>liver>kidney>spleen>heart>intestine>stomach>brain”.

Consider `CC(=O)[O-].COc1ccc2cc3[n+](cc2c1OC)CCc1cc2c(cc1-3)OCO2` [3. Acetate], for which the “Amount of Solvent” value in data set [4] is recorded as 9.0.

On to `COc1ccc2cc3[n+](cc2c1OC)CCc1cc2c(cc1-3)OCO2.O=C([O-])c1ccccc1` [13. Benzoate], for which the “Amount of Solvent” value in data set [4] was found to be 7.0.

As to `CC(O)C(=O)[O-].COc1ccc2cc3[n+](cc2c1OC)CCc1cc2c(cc1-3)OCO2` [4. Lactate], the “Amount of Solvent” value in data set [4] stood at 6.0.

In [5] (setting [7]), `CN(CCOc1ccc(CC2SC(=O)NC2=O)cc1)c1ccccn1` (stereo not drawn) [rosiglitazone, reference compound] registered a HbA1c of 6.8 ± 0.3 % and a Triglyceride of 1.6 ± 0.1 mmol/L. Besides, in data set [5] (Before treatment (baseline)), the “FBG (fasting blood glucose)” value was determined as 9.1 ± 0.8 mmol/L, the HbA1c was found to be 8.3 ± 0.4% and the Triglyceride was 1.9 ± 0.3 mmol/L.

In the case of `COc1ccc2cc3[n+](cc2c1OC)CCc1cc2c(cc1-3)OCO2` [berberine hydrochloride], in the data set on hyperlipidemia patients (setting [8]), the “lowering of serum LDL” value was 20%, the “lowering of serum cholesterol” value turned out to be 18% and the “lowering of serum triglycerides” value was 28%. Besides, in the data set with hyperlipidemia patients (setting [9]), the “decrease of serum LDL” value is 25%, the “decrease of serum cholesterol” value is 29% and the “decrease of serum triglycerides” value is reported as 35%.

In the case of `CC[C@H](C)C(=O)O[C@H]1C[C@@H](C)C=C2C=C[C@H](C)[C@H](CC[C@@H]3C[C@@H](O)CC(=O)O3)[C@H]21` [lovastatin, reference compound], in the data set with rat model subjects (setting [10]), the “Cholesterol Day 15” value was 2.7 mmol/L and the “LDL Day 15” value is 1.62 mmol/L. In the data set with rat model subjects (setting [11]), the “Cholesterol Day 0” value is listed as 3.6 mmol/L and the “LDL Day 0” value is reported as 2.15 mmol/L.

On to `N#CC(=C(/N)Sc1ccccc1N)/C(C#N)=C(\N)Sc1ccccc1N` [U0126], for which the “effect of inhibitor on the activity of berberine on InsR gene transcription” value in the data set with InsR mRNA was “did not effect”. For the same molecule, the “effect of inhibitor on berberine-increased level of LDLR mRNA” value in the data set with LDLR mRNA is on record as “completely abolished”.

Take `COc1ccc2cc3[n+](cc2c1OC)CCc1cc2c(cc1-3)OCO2.O=S(=O)([O-])O` [7. Hydrosulfate]: the “Amount of Solvent” value in data set [4] was 1.5.

`COc1ccc2cc3[n+](cc2c1OC)CCc1cc2c(cc1-3)OCO2.CS(=O)(=O)[O-]` [6. Methanesulfonate]: the “Amount of Solvent” value in data set [4] is given as 1.5.

For the molecule Calphostin C, the “effect of inhibitor on the activity of berberine on InsR gene transcription” value with InsR mRNA is listed as “completely eliminated”. For the same molecule, the “effect of inhibitor on berberine-increased level of LDLR mRNA” value in the data set with LDLR mRNA is “did not change”. Besides, in the data set with InsR gene promoter, the “effect of PKC inhibitor pre-treatment on berberine stimulation of InsR gene promoter” value is “diminished the ability of berberine to stimulate the InsR gene promoter”.

For the molecule `CCC(C)(C)C(=O)O[C@H]1C[C@@H](C)C=C2C=C[C@H](C)[C@H](CC[C@@H]3C[C@@H](O)CC(=O)O3)[C@H]21` [simvastatin, reference compound], in data set [6], the LDL-c stood at 1.4 ± 0.1 mmol/L, the “Total Cholesterol” value is reported as 3.6 ± 0.4 mmol/L and the Triglyceride stood at 2.5 ± 0.3 mmol/L.

As for `COc1ccc2cc3[n+](cc2c1OC)CCc1cc2c(cc1-3)OCO2.Cc1ccc(S(=O)(=O)[O-])cc1` [15. Toluenesulfonate], the “Amount of Solvent” value in data set [4] came to 11.0.

Take `CN(C)C(=N)N=C(N)N` [metformin, reference compound]: in data set [5] (setting [7]), the HbA1c is 7.2 ± 0.3 % and the Triglyceride worked out at 1.6 ± 0.1 mmol/L. Besides, in data set [5] (Before treatment (baseline)), the “FBG (fasting blood glucose)” value is 10.9 ± 0.5 mmol/L, the HbA1c is given as 9.4 ± 0.5% and the Triglyceride turned out to be 1.7 ± 0.2 mmol/L.

As for `COc1ccc2cc3[n+](cc2c1OC)CCc1cc2c(cc1-3)OCO2.O=C([O-])C(F)(F)F` [16. Trifluoroacetate], in data set [4], the “Amount of Solvent” value amounted to 7.5.

As for `COc1ccc2cc3[n+](cc2c1OC)CCc1cc2c(cc1-3)OCO2.COc1ccc2cc3[n+](cc2c1OC)CCc1cc2c(cc1-3)OCO2.O=S(=O)([O-])[O-]` [8. Sulfate], in data set [4], the “Amount of Solvent” value came to 0.5.

B1: oncostatin M: cytokine oncostatin M that induces transcription of the LDLR gene (protein, UniProt P13725 26-221, looked up)
Oncostatin-M: AAIGSCSKEYRVLLGQLQKQTDLMQDTSRLLDPYIRIQGLDVPKLREHCRERPGAFPSEETLRGLGRRGFLQTLNATLGCVLHRLADLEQRLPKAQDLERSGLNIEDLEKLQMARPNILGLRNNIYCMAQLLDNSDTAEPTKAGRGASQPPTPTPASDAFQRKLEGCRFLHGYHRFMHSVGRVFSKWGESPNRSRR
Regarding B1, the LDLR promoter activity result in the data set with LDLR promoter is “strongly elevated”.

For the origin of these results see US20080081781A1, “Methods and compositions for the treatment of metabolic syndrome” (priority 2004, published 2008).
